From patent US8188312B2, “Acyclic sulfamide derivatives” (Fundacion Imabis. Instituto Mediterraneo para el Avance de …, priority 2006, dated 2012)
Entries after “also recorded” stand apart in the source; their conditions may differ. Blank lines part the entries; values can stand above or below the compound they belong to.

How the values were obtained:
[1] = target: T1, human PPARα (Homo sapiens, UniProt Q07869); assay: Luciferase reporter gene assay (RGA) in transfected MCF-7 cells; assay type: cell-based; conditions: for induction of luciferase activity with overexpression of TIF2: TIF2 cotransfected, 1 μM; for induction of luciferase activity with overexpression of TIF2 / induction of the basal level of PPARα on the PPRE (relative luciferase activity): MCF-7 cells, 16 h; for induction of the basal level of PPARα on the PPRE (relative luciferase activity): endogenous coregulator levels, 10 μM WY14643, 1 μM OEA and analogs; for activation of PPARα (receptor-mediated transcription): summary statement
T1 construct: expressed in transfected cells; host or cells: MCF-7 human breast cancer cells, transiently transfected (DOTAP)
T1 sequence (Q07869 1-468): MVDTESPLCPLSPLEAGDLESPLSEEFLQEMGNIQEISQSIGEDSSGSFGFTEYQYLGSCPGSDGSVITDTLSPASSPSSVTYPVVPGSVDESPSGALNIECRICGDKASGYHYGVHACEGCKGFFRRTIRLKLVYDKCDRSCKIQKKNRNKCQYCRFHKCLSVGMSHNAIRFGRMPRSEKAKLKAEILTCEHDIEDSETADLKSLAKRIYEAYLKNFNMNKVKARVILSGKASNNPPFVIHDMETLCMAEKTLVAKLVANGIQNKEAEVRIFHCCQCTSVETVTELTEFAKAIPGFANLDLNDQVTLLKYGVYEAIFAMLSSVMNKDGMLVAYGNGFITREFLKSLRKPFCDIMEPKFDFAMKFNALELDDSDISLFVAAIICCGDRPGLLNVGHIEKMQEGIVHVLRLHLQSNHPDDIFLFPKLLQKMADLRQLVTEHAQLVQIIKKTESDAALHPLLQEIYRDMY
Method: FIG. 2: Agonistic action of OEA and analogs. Luciferase reporter gene assays were performed with extracts from MCF-7 cells that were transiently transfected with a luciferase reporter construct containing three copies of the human ACO of PPRE. (A) Wild type human PPARα expression vector was also cotransfected as indicated. Cells were treated for 16 h with solvent (DMSO), and different concentrations (*10^−8, *10^−7, **10^−6 and **10^−5 M) of OEA, compound 2, or *10^−7, **10^−6 and **10^−5 M of anandamide (AEA, used as a negative control), 7 (*10^−8, *10^−7, **10^−6 and **10^−5 M) and 12 (*10^−7, **10^−6 and **10^−5 M). (*p<0.05, (**) p<0.01 vs vehicle, #p<0.01 vs vehicle and without ACO) (B) Wild type human PPARα expression as well as plasmids coding full length TIF2 were also cotransfected as indicated. Cells were treated for 16 h with solvent (DMSO), 10 μM WY14643, 1 μM OEA and its analogs 2, 7 and 12. Relative luciferase activities were measured in reference to solvent-induced cells not overexpressing any protein. Columns represent the mean of at least three experiments and bars indicate SD. (*p<0.01 vs vehicle, #p<0.01 vs vehicle and without TIF2).
Breast cancer human cells MCF-7 were seeded in a 6-well culture plate (10^5 cells/mL) and cultured in a Dulbecco modified Eagle medium (DMEM) free from phenol red, supplied with 5% of fetal bovine serum (FBS) treated with carbon (Macias-Gonzalez, M et al. Mol. End. 17 (2003): 2028).
The liposomes with DNA plasmids were obtained by incubation of 1 μg of the reporter plasmid with luciferase and the wild type human PPAR-α expression vector with 10 μg of N-1-(2,3-dioleyloxi)-propyl-N,N,N-trimethylammonium (DOTAP from Roche Diagnostics) for 15 minutes at room temperature in a total volume of 100 μL. After the dilution with 900 μL of DMEM free from phenol red, the liposomes were added to the cells. 4-5 h after the transfection of the cells, the DMEM free from phenol red supplemented with 500 μL of FBS treated with carbon at 15% was added, in this case with the PPAR-α ligands (OEA, AEA and sulfamides derivatives) or control solvents (DMSO) at different concentrations of 10^−8, 10^−7, 10^−6 and 10^−5 M.
The cells were lysed 16 hours after the beginning of the stimulation with the reporter gene lysis buffer (Roche Diagnostics) and the reporter gene assay or RGA luciferase of constant luminous signal was carried out following the manufactures recommendations (Roche Diagnostics). The luciferase activities were standardized with regard to the protein concentration and the induction factors were calculated as the ratio of luciferase activity of ligand stimulated cells in relation to the solvent controls (Vaisanen, S. et al. Mol. Pharmacol. 62 (2002):788).

[2] = Food intake study: acute treatment in food-deprived rats; assay type: in vivo, male Wistar rats; conditions: i.p., rats food-deprived 24 h; 30, 60, 120 and 240 min
Method: FIG. 3: Activity of OEA analogs as feeding suppressants. Food intake in food-deprived animals was tested 30, 60, 120 and 240 min after the i.p injection of the different compounds synthesized at different doses. Here we show results for compounds 2 (A), 7 (B), 12 (C), 19 (D) and 20 (E). […] Results are means±SEM of at least three determinations per group. (*) p<0.05, (**) p<0.01, (***) p<0.001, versus vehicle, ANOVA.
The effects of the different compounds on feeding behaviour were analyzed in male Wistar rats deprived of food for 24 hours, which were accustomed to its manipulation (Navarro, M et al. 1996 J. Neurochem. 67 (1996):1982. Rodriguez de Fonseca, F. et al. Nature 414 (2001):209. Fu, J et al. Nature, 425 (2003):90). For this aim, 48 hours before every assay rats were set out in single cages, the base material (sand or sawdust) was removed and little food containers were set out into the cage for 4 hours. After this initial phase, animals were deprived of food for 24 hours, always with free access to water. After 24 hours of fast, different treatment groups were established (N=8-10 every group) and different doses of the sulfamide corresponding to each experimental session were administrated i.p. in their vehicle solution in a volume of 1 mL/kg, as well as a control group only treated with the vehicle: • 1) Group treated with a 0.03 mg/kg dose of the sulfamide in vehicle solution. • 2) Group treated with a […] dose of the sulfamide in vehicle. • 3) Group with a 3 mg/kg dose of the corresponding sulfamide in vehicle. • 4) Control group treated with the vehicle tween-80 at 5% in physiological serum.
15 minutes after the administration, the containers with a known food amount (normally 30-40 g) and a bottle of fresh water were placed. These containers were weighted 30, 60, 120 and 240 minutes after their presentation, so that the food ingested by each animal was controlled.

[3] = Food intake studies: chronic treatment, body weight and plasma triglycerides; assay type: in vivo, male Wistar rats
Method: (§1) FIG. 4: Effects of chronic treatment with 7 (N-octadecyl-N′-propylsulfamide) on body weight gain and plasma triglycerides. […] Results are means±SEM of at least three determinations per group. (*) p<0.05, versus vehicle, ANOVA.
A chronic treatment with the compounds was carried out using male Wistar rats which were accustomed to its manipulation.
For this aim, rats were set out in single cages keeping the base material (sand or sawdust). After an adaptation phase to the conditions of the husbandry where the assay was carried out, three different groups (N=8 every group) were established according to the received treatment: • 1) Group treated with example 6 in its vehicle solution with a 1 mg/kg dose. • 2) Group treated with tween-80 vehicle at 5% in physiological serum. • 3) Control group treated with physiological serum.
The total duration of the experiment was eight days, with two i.p. daily administrations (injected volume of 1 mL/kg) of the different solutions with an interval of 12 hours between both injections. Everyday and previously to the administration at 8:00, each animal was weighted. During the total time of the assay, the single weight of each animal and the biochemical parameters in serum were daily controlled.

[4] = Subchronic treatment in genetically obese Zucker rats; assay type: in vivo; conditions: 11 days, 1 mg/kg i.p. daily
From the text: as §1
To further explore the anti-obesity properties of this compound, we used an additional animal model of obesity.

[5] = cited from earlier work
[6] = 8 days, 1 mg/kg i.p., normal rats, vs vehicle, 1 mg/kg

SMILES: CCCCCCCC/C=C\CCCCCCCCNS(=O)(=O)NCCC
melting point: 82 to 83 °C

SMILES: CCCCCCCC/C=C\CCCCCCCCNS(N)(=O)=O [Compound 1, N-(cis-9-octadecenyl)sulfamide]
melting point: 68 to 70 °C

SMILES: CCCCCCCCCCCCCCCCCCNS(N)(=O)=O [Compound 2, N-octadecylsulfamide]
induction of luciferase activity with overexpression of TIF2 [1]: did not provide significantly higher induction
induction of the basal level of PPARα on the PPRE (relative luciferase activity) [1]: did not provide induction
activation of PPARα (receptor-mediated transcription) [1]: did not activate PPAR receptor-mediated transcription; also recorded: does not activate PPARα
food intake / feeding behaviour [2]: clearly reduced food intake; also recorded: reduces feeding behaviour
melting point: 105 to 107 °C

SMILES: CCCNS(=O)(=O)NC12CC3CC(CC(C3)C1)C2 [Compound 12, N-propyl-N′-adamantylsulfamide]
induction of luciferase activity with overexpression of TIF2 [1]: did not provide significantly higher induction
induction of the basal level of PPARα on the PPRE (relative luciferase activity) [1]: did not provide induction
activation of PPARα (receptor-mediated transcription) [1]: neither activates PPARα
food intake / feeding behaviour [2]: nor suppress food intake

SMILES: CCCCCCCC/C=C\CCCCCCCC(=O)NCCO [OEA]
induction of the basal level of PPARα on the PPRE (relative luciferase activity) [1]: ~6 times
dose at which hypolipemiant effects are present ([5]; described in the literature): greater than 5 mg/kg
food intake (literature finding) ([5]; through activation of the nuclear receptor PPARα): decrease food intake

Further lines, with some results ahead:

melting point: 102 to 104 °C
SMILES: CCCCCCCCCCCCCCCCNS(N)(=O)=O [Compound 3, N-hexadecylsulfamide]

melting point: 99 to 101 °C
SMILES: CCCCCCCCCCCCCCNS(N)(=O)=O [Compound 4, N-tetradecylsulfamide]

induction of the basal level of PPARα on the PPRE (relative luciferase activity) [1]: ~6 times
activation of PPARα (receptor-mediated transcription) [1]: potent activator of PPARα
melting point: 110 to 112 °C
SMILES: CCCCCCCCCCCCCCCCCCNS(=O)(=O)NCCC [Compound 7, N-octadecyl-N′-propylsulfamide]
food intake / feeding behaviour [2]: potent feeding suppressant
body weight [3, 6]: reduces body weight
plasma triglycerides [3, 6]: marked reduction in plasma triglycerides; also recorded: reduces
active dose ([3]; i.p.): 1 mg/kg
food intake [4]: reduced
body weight gain (cumulative relative weight gain) ([4]; 1 mg/kg): reduced body weight gain; also recorded: reduces cumulative relative weight gain

melting point: 108 to 110 °C
SMILES: CCCCCCCCCCCCCCCCNS(=O)(=O)NCCC [Compound 8, N-hexadecyl-N′-propylsulfamide]

melting point: 105 to 107 °C
SMILES: CCCCCCCCCCCCCCNS(=O)(=O)NCCC [Compound 9, N-propyl-N′-tetradecylsulfamide]

induction of the basal level of PPARα on the PPRE (relative luciferase activity) [1]: ~6 times
SMILES: Cc1cccc(Nc2cc(Cl)nc(SCC(=O)O)n2)c1C [WY14643, reference compound]
